Type in all cases: physicochemical
Data set [1] can be described thus: Desolvation of ethyl acetate solvate crystal forms upon drying and heating. To be noted: drying and heating above about 30° C. The procedure: For example, Examples 4A and 4B teach methods of producing crystalline (R)-amisulpride ethyl acetate solvate of Form B. The product of these examples upon drying above about 30° C., desolvates and converts to crystals of crystalline (R)-amisulpride free base of Form A and amorphous. Similarly, for example, Example 7 teaches a method producing crystalline (S)-amisulpride ethyl acetate solvate of Form B′. The product of these examples upon drying above about 30° C., desolvates and converts to crystals of crystalline (S)-amisulpride free base of Form A′ and amorphous. Although the fraction of the solvate that converts to Form A or Form A′ in the above examples is low, it is sufficient for obtaining seed crystals.
In various preferred embodiments, crystals of enantiomeric amisulpride ethyl acetate solvate are isolated by cooling the reaction mixture to below about 10° C., and preferably to about −10° C., until a slurry is formed. The slurry is slowly warmed and agitated for at least 1 hour at a temperature less than about 10° C., then filtered and washed with ethyl acetate at room temperature, and the resultant residue allowed to dry to isolate the desired crystalline enantiomeric amisulpride ethyl acetate solvate having a powder x-ray crystal pattern comprising peaks, in terms of 2-theta, at least at 6.4±0.2°, 8.3±0.2°, and 20.8±0.2°.

Data set [2] is described as follows: Solubility (mg/mL) in water, buffers, simulated fluids and organic solvents (Table 1).
The nature of data set [3]: DVS water sorption isotherm, 25° C. scanned over 0 to 95% relative humidity (hygroscopicity). Particulars: DVS, 25° C., 0 to 95% relative humidity. The source says:
In various embodiments, the hygroscopicity of crystal forms of racemic amisulpride, enantiomeric amisulpride, and enantiomeric amisulpride solvates are characterized by dynamic vapor sorption (DVS). DVS is a gravimetric technique that measures how much of a solvent is absorbed by a sample by varying the vapor concentration surrounding the sample (e.g., relative humidity) and measuring the change in mass. In the present application, DVS is used to generate water sorption isotherms, which represent the equilibrium amount of vapor sorbed as a function of steady state relative vapor pressure at a constant temperature.

SMILES strings stand for the structures. Values after ≈ are worked out from the molar mass of the structure shown. “Also recorded” adds a separate entry of the source. Like-named read-outs stand apart in the source and are kept apart here.

As for `CCN1CCC[C@@H]1CNC(=O)c1cc(S(=O)(=O)CC)c(N)cc1OC.CCOC(C)=O` [Form B, (R)-4-Amino-N-[(1-ethyl-2-pyrrolidinyl)methyl]-5-(ethylsulfonyl)-2-methoxybenzamide ethyl acetate solvate], the “desolvation of ethyl acetate solvate form” value in data set [1] was “desolvate upon drying and heating about 30 °C to convert to Form A; also recorded: desolvate to Form A and amorphous”.

For the compound `CCN1CCC[C@H]1CNC(=O)c1cc(S(=O)(=O)CC)c(N)cc1OC.CCOC(C)=O` [Form B′, S-4-Amino-N-[(1-ethyl-2-pyrrolidinyl)methyl]-5-(ethylsulfonyl)-2-methoxybenzamide ethyl acetate solvate], the “desolvation of ethyl acetate solvate form” value in data set [1] was “desolvate upon drying and heating about 30 °C; also recorded: desolvate to Form A′ and amorphous”.

With `CCN1CCCC1CNC(=O)c1cc(S(=O)(=O)CC)c(N)cc1OC` (racemic) [crystalline racemic amisulpride, 4-amino-N-[(1-ethylpyrrolidin-2-yl)methyl]-5-ethylsulfonyl-2-methoxy-benzamide, reference compound], the solubility in data set [2] (acetone/MtBE 1:4, organic solvent or mixture, read-out: Solubility (mg/mL): Acetone/MtBE 1:4) is 0.4 mg/mL (≈ 1080 µM); in data set [2] (acetone/MtBE 1:9, organic solvent or mixture, read-out: Solubility (mg/mL): Acetone/MtBE 1:9), 0.2 mg/mL (≈ 541 µM); in data set [2] (ethyl acetate, organic solvent or mixture, read-out: Solubility (mg/mL): Ethyl Acetate), 0.5 mg/mL (≈ 1350 µM); in data set [2] (water, solution pH 10.2 (Form A), 10.3 (Form A′), read-out: Solubility (mg/mL): Water) it was under 1 mg/mL.

Take `CCN1CCC[C@H]1CNC(=O)c1cc(S(=O)(=O)CC)c(N)cc1OC.O=C(O)C(O)C(O)C(=O)O` [(S)-amisulpride D-tartrate, S-(−)-4-Amino-N-[(1-ethyl-2-pyrrolidinyl)methyl]-5-(ethylsulfonyl)-2-methoxybenzamide D-tartrate, reference compound]: the hygroscopicity result in data set [3] is on record as “highly hygroscopic”. In data set [3] (n=4), the “maximum mass change in water sorption isotherms (n=4, σ=18.25)” value is on record as 52±9%.

Source of the values: patent US10577317B2, “Crystal forms and production methods thereof” (Sunovion Pharmaceuticals Inc., priority 2017, dated 2020).
